Data published in US20230003721A1, “MITOTHERAPEUTICS FOR THE TREATMENT OF BRAIN DISORDERS” (The University of Florida Research Foundation, Inc., priority 2019, published 2023).
Where a name gives a salt, the structure may show the parent alone.

Experiments:
[1] = test system: primary neurons; assay: TMRM fluorescence assay of inner mitochondrial membrane potential (ΔΨm); conditions: for TMRM Primary: primary screen, 12.5 μM; for TMRM Primary / TMRM Rescreen: 24 h; for EC50: read-out: TMRM-EC50; for Emax: read-out: TMRM (Effect-size)
Procedure: Mitochondrial dyes. To assay the electrochemical potential across the inner mitochondrial membrane of cultured cells, we used the cell-permeant dye tetramethylrhodamine methyl ester (TMRM). For co-localization studies with Mt-GFP, TMRM was used at 20 nM on DIV14 and incubated for 30 min prior to imaging. For the orthogonal screen of compounds, TMRM was added to primary neurons on DIV13 at 10 nM, one hr prior to pintooling selected compounds, and incubated for 24 hr. Cells were washed 2× with pre-warmed fresh feeding media without B27 before measurements with a plate reader.
(§1) A CLARIOstar (BMG LABTECH) microplate reader was used to measure fluorescence of TMRM and luminescence produced from the ATP.
(§2) Mitochondrial membrane potential (Δψm) and luminescence-based ATP assays. […] Changes of ΔΨm in each well were monitored using the mitochondrial-specific, fluorescent dye TMRM (tetramethyl rhodamine, methyl ester; Molecular Probes) and measured using a CLARIOstar plate reader. […] This concentration was used throughout our experiments. […] Wells in columns 1 and 24 were not loaded with TMRM; these served to measure background signal which was subtracted from the wells to which TMRM was added. To measure the total ATP levels in neurons we utilized the CellTiter-Glo® luminescence-based ATP assay (Promega). DIV13 primary neurons were cultured for 24 h with either DMSO carrier or compound treatment, followed by removing 55 μl culture medium from each well. Plates were maintained at room temperature for 25 m, and 25 μl of CellTiter-Glo® Reagent with the substrate luciferin was then added to each well (Promega). Plates were covered with aluminum foil and shaken vigorously on an orbital shaker for 10 m at 200 rpm and maintained at room temperature for an additional 2 m in dark before being read with the plate reader set to the luminescence mode.
Compound library and hit picking rules. We screened 2400 compounds from the MicroSource Spectrum library. […] FIGS. 13A-13E provide details of the assays used from which hit picking rules were made. In essence, the average fluorescence for each compound in the TMRM assay was determined and compared to the average fluorescence for compounds in the population on each assay plate to produce a Z-score. The Z-scores for each individual compound assayed across the four replicate plates was then averaged.

[2] = test system: primary neurons; assay: CellTiter-Glo luminescence-based ATP assay; type: cell-based, mouse; conditions: for ATP: ATP orthogonal screen, 24 h; for EC50: 15 concentrations from 6 nM to 100 uM; for Emax: read-out: ATP (Effect-size)
Procedure: Measurement of ATP production. The total amount of ATP produced by cultured primary neurons was measured by CellTiter-Glo Luminescent Cell Viability Assay (Promega). A recombinant luciferase enzyme catalyzed the mono-oxygenation of luciferin while hydrolyzing ATP produced by the cells and emitting light. We followed the manufacturer's protocol with primary neurons on DIV14.
as §1, §2
Compound library and hit picking rules. We screened 2400 compounds from the MicroSource Spectrum library. […] FIGS. 13A-13E provide details of the assays used from which hit picking rules were made. In essence, the average fluorescence for each compound in the TMRM assay was determined and compared to the average fluorescence for compounds in the population on each assay plate to produce a Z-score. The Z-scores for each individual compound assayed across the four replicate plates was then averaged. Because of significant well location effects (outer rows) on each assay plate (FIG. 13G), we selected primary hits as enhancing well fluorescence above the μplate by 3σplate for inner row wells (rows C-N, columns 3-22), and by 2.5σplate for outer row wells (rows A, B, O, P; columns 3-22) (FIG. 14C-D). […] All orthogonal assays employed inner wells of the 384-well plates.

[3] = maximal percent increase relative to in-plate DMSO controls, dose response
[4] = Mus musculus, Primary neuron, dose response
[5] = Mus musculus, Primary neuron, maximal percent increase relative to in-plate DMSO controls, dose response

EC50 ([1]; dose response, 15 concentrations from 6 nM to 100 uM) | Molecule | TMRM (Effect-size) [1, 3] | TMRM Primary [1] | TMRM Rescreen [1] | ATP [2] | EC50 ([2]; dose response) | ATP (Effect-size) [2, 3] | Emax ([1]; Mus musculus, Primary neuron) | EC50 ([1]; Mus musculus, Primary neuron) | EC50 [2, 4] | Emax [2, 5]
2600 nM | pizotyline malate | 25.2% | 3.21 Z-scores | 5.84 Z-scores | 7.13 Z-scores | 360 nM | 17.9% | – | – | – | –
– | O=C(c1ccc(F)cc1)C1CCN(CCn2c(=O)[nH]c3ccccc3c2=O)CC1 [ketanserin tartrate] | – | 5.62 Z-scores | 5.26 Z-scores | 5.68 Z-scores | – | – | 30% | 1300 nM | 160 nM | 19.1%
– | CN(C)CCCN1c2ccccc2CCc2ccccc21 [imipramine hydrochloride] | – | 3.31 Z-scores | 0.91 Z-scores | 5.10 Z-scores | – | – | – | – | – | –
– | CCN(CC)CC(=O)Nc1c(C)cccc1C [lidocaine hydrochloride] | – | 3.06 Z-scores | 4.69 Z-scores | 6.98 Z-scores | – | – | 17.4% | 1890 nM | 110 nM | 15.8%
– | CCCNCC(O)COc1ccccc1C(=O)CCc1ccccc1 (stereo not shown) [propafenone hydrochloride] | – | 3.75 Z-scores | 5.04 Z-scores | 5.18 Z-scores | – | – | – | – | – | –
– | COc1cc2nc(N3CCN(C(=O)C4COc5ccccc5O4)CC3)nc(N)c2cc1OC (stereo not shown) [doxazosin mesylate] | – | 4.39 Z-scores | 5.94 Z-scores | 4.68 Z-scores | – | – | – | – | – | –
– | CCN(CC)CCOc1ccc(C(=C(Cl)c2ccccc2)c2ccccc2)cc1 [clomiphene citrate] | – | 2.94 Z-scores | 3.45 Z-scores | 4.20 Z-scores | – | – | – | – | – | –
– | CCCCN1CCCCC1C(=O)Nc1c(C)cccc1C (stereo not shown) [bupivacaine hydrochloride] | – | 5.35 Z-scores | 5.25 Z-scores | 4.80 Z-scores | – | – | – | – | – | –
– | C[C@]12CC[C@@H]3c4ccc(O)cc4CC[C@H]3[C@@H]1CC[C@@H]2OC(=O)CCC1CCCC1 [estradiol cypionate] | – | 2.59 Z-scores | 4.67 Z-scores | 2.98 Z-scores | – | – | – | – | – | –
– | OC(CNCC(O)C1CCc2cc(F)ccc2O1)C1CCc2cc(F)ccc2O1 (stereo not shown) [nebivolol hydrochloride] | – | 3.73 Z-scores | 5.29 Z-scores | 6.92 Z-scores | – | – | – | – | – | –
– | CC1=C2C[C@H]3[C@@H](CC=C4C[C@@H](O)CC[C@@]43C)[C@@H]2CC[C@]12O[C@@H]1C[C@H](C)CN[C@H]1[C@H]2C [cyclopamine] | – | 3.74 Z-scores | 8.14 Z-scores | 5.15 Z-scores | – | – | – | – | – | –
– | CCCCCCCCCCC[C@@H](C[C@@H]1OC(=O)[C@H]1CCCCCC)OC(=O)[C@H](CC(C)C)NC=O [orlistat] | – | 3.43 Z-scores | 1.56 Z-scores | 2.36 Z-scores | – | – | – | – | – | –
– | CN(C)CCOc1ccc(/C(=C(/CCCl)c2ccccc2)c2ccccc2)cc1 [toremifene citrate] | – | 3.31 Z-scores | 7.05 Z-scores | 3.29 Z-scores | – | – | – | – | – | –
– | CN(C)CCCN1c2ccccc2Sc2ccccc21 [promazine hydrochloride] | – | 3.81 Z-scores | 4.04 Z-scores | 4.76 Z-scores | – | – | – | – | – | –
– | CNCCC=C1c2ccccc2CCc2ccccc21 [nortriptyline hydrochloride] | – | 3.77 Z-scores | 5.25 Z-scores | 5.66 Z-scores | – | – | 21% | 550 nM | 200 nM | 16.5%
